Experimental data reported in patent US8192962B2, “Processes for detecting toxic substances” (Daikin Industries, Ltd., priority 2001, dated 2012).

Test system: Mitochondria-located protein genes
Assay: DNA chip mRNA expression in yeast, mitochondria-located protein genes (Table 2)
Format: cell-based, Saccharomyces cerevisiae S288C
Settings: cells incubated two hours with the chemical substance
Summary of the method: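 Ratios compare mRNA levels in stressed and control S. cerevisiae. Each toxicant was applied for two hours to log-phase cultures at 25° C. at a sub-lethal, growth-inhibiting level; fluorescent cDNA (Cy3- or Cy5-dUTP) was hybridized to a genome-wide yeast chip for over 12 h at 65° C.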

## C=CC=O [(14), acrolein]
Yeast gene YAL039C
  The level of expressed mRNA in the presence of chemical substance/The level of expressed mRNA in the absence of chemical substance: 1.2
Yeast gene YBL022C
  The level of expressed mRNA in the presence of chemical substance/The level of expressed mRNA in the absence of chemical substance: 1.0
Yeast gene YBL030C
  The level of expressed mRNA in the presence of chemical substance/The level of expressed mRNA in the absence of chemical substance: 0.8
Yeast gene YBL038W
  The level of expressed mRNA in the presence of chemical substance/The level of expressed mRNA in the absence of chemical substance: 2.3
Yeast gene YBL099W
  The level of expressed mRNA in the presence of chemical substance/The level of expressed mRNA in the absence of chemical substance: 0.6
Yeast gene YBR003W
  The level of expressed mRNA in the presence of chemical substance/The level of expressed mRNA in the absence of chemical substance: 0.8
Yeast gene YBR044C
  The level of expressed mRNA in the presence of chemical substance/The level of expressed mRNA in the absence of chemical substance: 0.9
Yeast gene YBR091C
  The level of expressed mRNA in the presence of chemical substance/The level of expressed mRNA in the absence of chemical substance: 1.7
Yeast gene YBR122C
  The level of expressed mRNA in the presence of chemical substance/The level of expressed mRNA in the absence of chemical substance: 1.2
Yeast gene YBR185C
  The level of expressed mRNA in the presence of chemical substance/The level of expressed mRNA in the absence of chemical substance: 1.7
Yeast gene YBR221C
  The level of expressed mRNA in the presence of chemical substance/The level of expressed mRNA in the absence of chemical substance: 0.8
Yeast gene YBR251W
  The level of expressed mRNA in the presence of chemical substance/The level of expressed mRNA in the absence of chemical substance: 1.6
Yeast gene YBR282W
  The level of expressed mRNA in the presence of chemical substance/The level of expressed mRNA in the absence of chemical substance: 1.4
Yeast gene YCL057W
  The level of expressed mRNA in the presence of chemical substance/The level of expressed mRNA in the absence of chemical substance: 1.0
Yeast gene YCR046C
  The level of expressed mRNA in the presence of chemical substance/The level of expressed mRNA in the absence of chemical substance: 1.3
Yeast gene YCR083W
  The level of expressed mRNA in the presence of chemical substance/The level of expressed mRNA in the absence of chemical substance: 2.4
Yeast gene YDL067C
  The level of expressed mRNA in the presence of chemical substance/The level of expressed mRNA in the absence of chemical substance: 1.4
Yeast gene YDL181W
  The level of expressed mRNA in the presence of chemical substance/The level of expressed mRNA in the absence of chemical substance: 1.1
Yeast gene YDL198C
  The level of expressed mRNA in the presence of chemical substance/The level of expressed mRNA in the absence of chemical substance: 1.7
Yeast gene YDR079W
  The level of expressed mRNA in the presence of chemical substance/The level of expressed mRNA in the absence of chemical substance: 1.5
Yeast gene YDR178W
  The level of expressed mRNA in the presence of chemical substance/The level of expressed mRNA in the absence of chemical substance: 1.5
Yeast gene YDR231C
  The level of expressed mRNA in the presence of chemical substance/The level of expressed mRNA in the absence of chemical substance: 1.5
Yeast gene YDR258C
  The level of expressed mRNA in the presence of chemical substance/The level of expressed mRNA in the absence of chemical substance: 1.5
Yeast gene YDR298C
  The level of expressed mRNA in the presence of chemical substance/The level of expressed mRNA in the absence of chemical substance: 1.5
Yeast gene YDR347W
  The level of expressed mRNA in the presence of chemical substance/The level of expressed mRNA in the absence of chemical substance: 1.5
Yeast gene YDR377W
  The level of expressed mRNA in the presence of chemical substance/The level of expressed mRNA in the absence of chemical substance: 1.4
Yeast gene YDR529C
  The level of expressed mRNA in the presence of chemical substance/The level of expressed mRNA in the absence of chemical substance: 1.5
Yeast gene YEL024W
  The level of expressed mRNA in the presence of chemical substance/The level of expressed mRNA in the absence of chemical substance: 1.1
Yeast gene YEL039C
  The level of expressed mRNA in the presence of chemical substance/The level of expressed mRNA in the absence of chemical substance: 1.4
Yeast gene YER178W
  The level of expressed mRNA in the presence of chemical substance/The level of expressed mRNA in the absence of chemical substance: 0.9
Yeast gene YFL016C
  The level of expressed mRNA in the presence of chemical substance/The level of expressed mRNA in the absence of chemical substance: 0.8
Yeast gene YGL018C
  The level of expressed mRNA in the presence of chemical substance/The level of expressed mRNA in the absence of chemical substance: 1.2
Yeast gene YGL187C
  The level of expressed mRNA in the presence of chemical substance/The level of expressed mRNA in the absence of chemical substance: 0.9
Yeast gene YGL191W
  The level of expressed mRNA in the presence of chemical substance/The level of expressed mRNA in the absence of chemical substance: 1.6
Yeast gene YGR008C
  The level of expressed mRNA in the presence of chemical substance/The level of expressed mRNA in the absence of chemical substance: 1.3
Yeast gene YGR028W
  The level of expressed mRNA in the presence of chemical substance/The level of expressed mRNA in the absence of chemical substance: 1.2
Yeast gene YGR062C
  The level of expressed mRNA in the presence of chemical substance/The level of expressed mRNA in the absence of chemical substance: 1.2
Yeast gene YGR076C
  The level of expressed mRNA in the presence of chemical substance/The level of expressed mRNA in the absence of chemical substance: 2.3
Yeast gene YGR082W
  The level of expressed mRNA in the presence of chemical substance/The level of expressed mRNA in the absence of chemical substance: 0.9
Yeast gene YGR174C
  The level of expressed mRNA in the presence of chemical substance/The level of expressed mRNA in the absence of chemical substance: 1.6
Yeast gene YGR244C
  The level of expressed mRNA in the presence of chemical substance/The level of expressed mRNA in the absence of chemical substance: 1.2
Yeast gene YHR008C
  The level of expressed mRNA in the presence of chemical substance/The level of expressed mRNA in the absence of chemical substance: 1.6
Yeast gene YIL155C
  The level of expressed mRNA in the presence of chemical substance/The level of expressed mRNA in the absence of chemical substance: 1.3
Yeast gene YJL096W
  The level of expressed mRNA in the presence of chemical substance/The level of expressed mRNA in the absence of chemical substance: 2.1
Yeast gene YJL102W
  The level of expressed mRNA in the presence of chemical substance/The level of expressed mRNA in the absence of chemical substance: 1.5
Yeast gene YJL133W
  The level of expressed mRNA in the presence of chemical substance/The level of expressed mRNA in the absence of chemical substance: 0.7
Yeast gene YJL166W
  The level of expressed mRNA in the presence of chemical substance/The level of expressed mRNA in the absence of chemical substance: 1.9
Yeast gene YJL180C
  The level of expressed mRNA in the presence of chemical substance/The level of expressed mRNA in the absence of chemical substance: 1.4
Yeast gene YJR045C
  The level of expressed mRNA in the presence of chemical substance/The level of expressed mRNA in the absence of chemical substance: 0.5
Yeast gene YJR077C
  The level of expressed mRNA in the presence of chemical substance/The level of expressed mRNA in the absence of chemical substance: 0.7
